Earlier results in patent publication US20100076037A1, “Methods of Treating Neuropathic Pain with Agonists of PPAR-gamma” (priority 2006, published 2010).

Key:
mouse (m)PPARgamma = target: T1, mouse (m)PPARgamma (Mus musculus, UniProt P37238); details: U2 OS cells, mPPARgamma, cited from earlier work
T1 construct: expressed in transfected cells; host or cells: U2 OS

PPARalpha [1] = target: T2, PPARalpha (Homo sapiens, UniProt Q07869); details: U2 OS cells; cited from earlier work
T2 sequence (Q07869 1-468): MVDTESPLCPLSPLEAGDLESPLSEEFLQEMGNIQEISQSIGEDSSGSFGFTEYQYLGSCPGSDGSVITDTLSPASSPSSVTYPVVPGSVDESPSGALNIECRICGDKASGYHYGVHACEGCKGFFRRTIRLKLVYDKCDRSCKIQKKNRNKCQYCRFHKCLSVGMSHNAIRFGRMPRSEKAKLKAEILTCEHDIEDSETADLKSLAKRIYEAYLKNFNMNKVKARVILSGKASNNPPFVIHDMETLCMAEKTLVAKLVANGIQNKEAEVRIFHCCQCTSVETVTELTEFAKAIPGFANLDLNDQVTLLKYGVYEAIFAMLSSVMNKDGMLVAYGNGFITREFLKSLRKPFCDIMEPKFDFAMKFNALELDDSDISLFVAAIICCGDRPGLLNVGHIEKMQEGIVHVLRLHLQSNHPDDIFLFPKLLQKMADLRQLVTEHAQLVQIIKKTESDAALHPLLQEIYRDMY

[2] = cited from earlier work
rats = details: intrathecal; cited from earlier work
PPARγ = PPARγ (Homo sapiens, UniProt P37231); details: ECV304 cell line; cited from earlier work
Chain of PPARγ (P37231 whole entry, species assumed): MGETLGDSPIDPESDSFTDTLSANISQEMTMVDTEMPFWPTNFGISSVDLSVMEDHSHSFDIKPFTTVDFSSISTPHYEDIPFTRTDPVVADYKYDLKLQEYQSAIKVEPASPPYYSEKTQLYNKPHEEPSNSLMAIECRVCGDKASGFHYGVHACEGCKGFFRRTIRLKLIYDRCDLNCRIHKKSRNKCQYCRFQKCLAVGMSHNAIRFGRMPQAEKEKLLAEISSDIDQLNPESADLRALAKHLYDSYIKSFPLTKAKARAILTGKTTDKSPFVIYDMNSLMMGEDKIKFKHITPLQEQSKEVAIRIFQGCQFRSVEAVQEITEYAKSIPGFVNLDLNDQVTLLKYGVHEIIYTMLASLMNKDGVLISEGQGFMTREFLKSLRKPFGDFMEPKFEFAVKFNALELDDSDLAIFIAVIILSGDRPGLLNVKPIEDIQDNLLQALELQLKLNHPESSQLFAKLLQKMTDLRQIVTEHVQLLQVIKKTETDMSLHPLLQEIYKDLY

diabetic patients = details: human, in vivo; cited from earlier work
[3] = test system: rats subjected to spinal cord injury; details: given before pioglitazone; cited from earlier work
[4] = 3 or 30 mg/kg; cited from earlier work
PPARalpha [5] = target: T2, PPARalpha; details: first value of the pair given as α/γ; read-out: EC50 for PPARalpha agonism; cited from earlier work
[6] = test system: multidrug resistance protein 2; details: Caco-2; cited from earlier work
P-glycoprotein = target: T3, P-glycoprotein (Homo sapiens, UniProt P08183); details: cited from earlier work
T3 construct: host or cells: Caco2 and MDCK-MDR1 monolayers (tie to the P-gp statement is grammatically loose)
T3 sequence (P08183 whole entry): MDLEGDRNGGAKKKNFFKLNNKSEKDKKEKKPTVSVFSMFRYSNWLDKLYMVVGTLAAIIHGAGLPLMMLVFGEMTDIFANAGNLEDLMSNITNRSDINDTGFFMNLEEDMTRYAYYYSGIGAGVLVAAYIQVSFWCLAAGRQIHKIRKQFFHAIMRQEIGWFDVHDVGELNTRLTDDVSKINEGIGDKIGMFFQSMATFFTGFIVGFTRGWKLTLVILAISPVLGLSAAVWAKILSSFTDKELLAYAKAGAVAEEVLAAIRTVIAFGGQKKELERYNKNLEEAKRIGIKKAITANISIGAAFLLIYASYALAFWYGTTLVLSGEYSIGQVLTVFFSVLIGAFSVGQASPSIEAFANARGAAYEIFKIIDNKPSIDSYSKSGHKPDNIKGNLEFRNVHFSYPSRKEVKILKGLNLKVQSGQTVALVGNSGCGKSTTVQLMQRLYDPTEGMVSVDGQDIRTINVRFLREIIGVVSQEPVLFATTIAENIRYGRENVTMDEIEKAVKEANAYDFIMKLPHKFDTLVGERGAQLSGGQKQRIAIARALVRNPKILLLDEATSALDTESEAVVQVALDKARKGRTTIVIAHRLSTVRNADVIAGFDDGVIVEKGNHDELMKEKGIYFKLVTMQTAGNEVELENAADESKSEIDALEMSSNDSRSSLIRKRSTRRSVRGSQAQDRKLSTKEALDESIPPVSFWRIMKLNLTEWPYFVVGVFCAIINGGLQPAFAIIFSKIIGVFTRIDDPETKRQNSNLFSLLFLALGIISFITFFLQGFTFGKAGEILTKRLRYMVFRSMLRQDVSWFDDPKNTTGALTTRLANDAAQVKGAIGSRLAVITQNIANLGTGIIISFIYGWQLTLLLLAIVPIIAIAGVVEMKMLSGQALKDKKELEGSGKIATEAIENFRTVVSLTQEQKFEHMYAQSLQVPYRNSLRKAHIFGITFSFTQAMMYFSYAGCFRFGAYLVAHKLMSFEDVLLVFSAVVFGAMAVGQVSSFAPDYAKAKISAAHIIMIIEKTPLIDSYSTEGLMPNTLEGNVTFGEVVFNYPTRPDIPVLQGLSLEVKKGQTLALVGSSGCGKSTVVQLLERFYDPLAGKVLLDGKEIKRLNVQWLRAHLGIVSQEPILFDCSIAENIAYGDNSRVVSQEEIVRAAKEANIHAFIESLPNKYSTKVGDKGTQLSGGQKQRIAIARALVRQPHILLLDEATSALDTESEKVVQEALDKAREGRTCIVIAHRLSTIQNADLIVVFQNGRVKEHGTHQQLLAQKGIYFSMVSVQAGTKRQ

mPPARalpha = mPPARalpha (Mus musculus, UniProt P23204); details: read-out: EC50 reporter gene assay, U2 OS cells; cited from earlier work
Chain of mPPARalpha (P23204 whole entry): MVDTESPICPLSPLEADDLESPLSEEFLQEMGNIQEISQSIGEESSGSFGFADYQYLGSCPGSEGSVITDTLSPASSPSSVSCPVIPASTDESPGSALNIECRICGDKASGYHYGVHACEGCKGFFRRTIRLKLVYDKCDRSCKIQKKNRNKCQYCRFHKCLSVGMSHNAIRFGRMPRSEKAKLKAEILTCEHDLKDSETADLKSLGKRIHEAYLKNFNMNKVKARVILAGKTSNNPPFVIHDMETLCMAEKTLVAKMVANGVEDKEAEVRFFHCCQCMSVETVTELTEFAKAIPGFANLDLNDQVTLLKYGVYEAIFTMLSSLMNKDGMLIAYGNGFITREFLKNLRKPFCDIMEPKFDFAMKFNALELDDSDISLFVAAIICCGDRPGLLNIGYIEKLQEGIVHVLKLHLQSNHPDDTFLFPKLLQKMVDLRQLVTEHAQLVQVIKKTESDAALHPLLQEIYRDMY

T1 sequence (P37238 whole entry): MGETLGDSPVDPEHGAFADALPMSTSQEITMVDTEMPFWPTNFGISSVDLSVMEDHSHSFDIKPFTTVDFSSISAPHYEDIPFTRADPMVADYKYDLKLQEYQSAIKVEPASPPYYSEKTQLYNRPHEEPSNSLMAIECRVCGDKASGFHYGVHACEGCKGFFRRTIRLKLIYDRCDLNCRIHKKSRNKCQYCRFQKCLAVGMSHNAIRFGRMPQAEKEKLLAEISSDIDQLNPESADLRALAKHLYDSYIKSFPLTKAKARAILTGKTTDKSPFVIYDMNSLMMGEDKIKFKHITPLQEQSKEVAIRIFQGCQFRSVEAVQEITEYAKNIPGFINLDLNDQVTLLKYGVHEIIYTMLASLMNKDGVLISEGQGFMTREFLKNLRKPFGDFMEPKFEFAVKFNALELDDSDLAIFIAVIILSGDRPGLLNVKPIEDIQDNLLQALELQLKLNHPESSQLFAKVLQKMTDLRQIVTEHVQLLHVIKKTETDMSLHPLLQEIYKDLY

Cc1cccc(Nc2cc(Cl)nc(SCC(=O)O)n2)c1C [WY-14643]
EC50 reporter gene assay (mouse (m)PPARgamma): no activity
EC50 reporter gene assay (PPARalpha [1]): no activity

CCCCC/C=C/C=C1/C(=O)C=C[C@@H]1C/C=C\CCCC(=O)O [15dPGJ2]
mechanical allodynia (von Frey) ([2]; intrathecal, 7 days post-SNI): dose-dependently reduced
pain behavior (rats): reduction in pain behavior

CC(C)(c1ccc(OCC2CO2)cc1)c1ccc(OCC2CO2)cc1 (stereo not drawn) [BADGE, Bisphenol A diglycidyl ether]
effect on the observed anti-allodynic effects of rosiglitazone and 15dPGJ2 ([2]; in vivo): reversed
PPARγ activity (PPARγ): has PPARγ agonist activity

CCc1ccc(CCOc2ccc(CC3SC(=O)NC3=O)cc2)nc1 (stereo not drawn) [pioglitazone]
rates of edema (diabetic patients): 4.2%

O=C(Nc1ccccc1)c1cc([N+](=O)[O-])ccc1Cl [GW9662, 2-chloro-5-nitro-N-phenylbenzamide]
effect of pretreatment on pioglitazone-induced motor function recovery [3]: completely abolished
threshold (in g) [4]: increased

Cc1oc(-c2ccccc2)nc1CCOc1ccc(CC2C(=O)NOC2=O)cc1 (stereo not drawn) [JTT-501]
EC50 (PPARalpha [5]): 400 nM

CCO[C@@H](Cc1ccc(OCCN2c3ccccc3Oc3ccccc32)cc1)C(=O)O [NNC-61-0029]
EC50 (PPARalpha [5]): 600 nM

CCOC(Cc1ccc(OCCc2ccc(OS(C)(=O)=O)cc2)cc1)C(=O)OC1OC(C(=O)O)C(O)C(O)C1O (stereo not drawn) [acylglucuronide metabolite]
transport in Caco2 and MDCK-MDR1 monolayers [6]: apparently transported by multidrug resistance protein 2
substrate of P-glycoprotein (P-glycoprotein): not substrates of P-glycoprotein

CC(C)(Oc1ccc(CCNC(=O)c2ccc(Cl)cc2)cc1)C(=O)O [bezafibrate]
EC50 (mouse (m)PPARgamma; read-out: EC50 reporter gene assay): 23 µM
EC50 (mPPARalpha): 24 µM
